Assay results as given in patent US20260265239A1, “CRYSTAL FORM OF 2,6-PIPERIDINEDIONE COMPOUND, AND PREPARATION METHOD THEREFOR AND USE THEREOF” (ZHANGZHOU PIEN TZE HUANG PHARMACEUTICAL CO., LTD., priority 2023, published 2026).

Assays:
[1] = Solid stability test under long-term conditions; assay type: physicochemical
Description: Samples were taken for testing at the 1st and 2nd months, and the test results were compared with the initial test results at day 0.

[2] = Stability in solvents: anti-solvent addition, XRPD; assay type: physicochemical; conditions: anti-solvent Water
Method: (§1) • Instrument model: PANalytacal X-ray Powder Diffractometer • Test method: Approximately 10 to 20 mg of the sample is used for XRPD detection.
(§2) The detailed XRPD parameters are as follows: • X-ray tube: Cu, kα, (λ=1.540598 Å, λ=1.544426 Å). • X-ray tube voltage: 45 kV, X-ray tube current: 40 mA • Divergence slit: ⅛° • Scan mode: continuous • Scanning range (°2Theta): 3-40 • Scanning time per step (s): 46.7 • Scanning step size (°2Theta): […] • Test duration: approximately 5 min
While stirring (1000 rpm), the anti-solvent listed in the table below was added dropwise to the clear solution until solids precipitated, or until the total volume of anti-solvent reached 10 mL. Samples without precipitation were stirred in suspension at 5° C., while clear samples were transferred to −20° C. for suspension stirring. If still clear, the samples were transferred to room temperature for volatilization. The precipitated solids were isolated and subjected to XRPD testing.

[3] = Hygroscopicity study by dynamic vapor sorption (DVS); assay type: physicochemical
Method: • Instrument model: DVS Intrinsic Plus Dynamic Vapor Sorption Analyzer from SMS (Surface Measurement Systems) • Test conditions: The sample (10 to 20 mg) is placed in a DVS sample pan for testing.
The detailed DVS parameters are as follows: • Temperature: 25° C. • Equilibrium: dm/dt=0.002%/min (minimum: 10 min, maximum: 180 min) • Drying: 120 min at 0% RH • RH (%) test steps: 10% • RH (%) test step range: 0%-95%-0%
The hygroscopicity evaluation is classified as follows:
• DVS Intrinsic Plus Dynamic Vapor Sorption Analyzer from SMS (Surface Measurement Systems).

[4] = Solid stability test under accelerated conditions; assay type: physicochemical
Description: Samples were taken for testing at the 1st, 2nd, and 3rd months, and the test results were compared with the initial test results at day 0.

[5] = Pharmacokinetic evaluation in beagle dogs; assay type: in vivo; conditions: Intragastric administration, 5 mg/kg, listed as Crystal Form A of Compound of Formula (I)
Description: Male beagle dogs were selected as the experimental animals in this study. The LC/MS/MS method was employed to quantitatively determine the plasma drug concentrations at different time points after intravenous injection or intragastric administration of the test compound, aiming to evaluate the pharmacokinetic characteristics of the compound of the present disclosure in beagle dogs.
Beagle dogs (male, 7 to 10 kg, Beijing Mars Biotechnology Co., Ltd.).
A solution of the test compound was slowly injected intravenously into beagle dogs (fed) via the peripheral vein (vehicle: 5% DMSO/10% Solutol/85% H2O), or administered intragastrically to beagle dogs (fed). For intravenous administration, 0.5 mL of blood was collected from the peripheral vein at 0.083, 0.25, 0.5, 1, 2, 4, 6, 8, and 24 h after administration, placed in EDTA-2K anticoagulant tubes, and centrifuged at 3200 g for 10 minutes at 2 to 8° C. to separate the supernatant. For intragastric administration, 0.5 mL of blood was collected from the peripheral vein at 0.083, 0.25, 0.5, 1, 2, 4, 6, 8, and 24 h after administration, placed in EDTA-2K anticoagulant tubes, and centrifuged at 3200 g for 10 minutes at 2 to 8° C. to separate the supernatant. Plasma drug concentrations were determined by the LC-MS/MS method, and relevant pharmacokinetic parameters were calculated using Phoenix WinNonlin 6.3 or 8.3.5 pharmacokinetic software with non-compartmental model linear-log trapezoidal method.

[6] = Stability in solvents: suspension stirring at room temperature, XRPD; assay type: physicochemical; conditions: acetone, tetrahydrofuran, 1,4-dioxane, methanol, ethanol, isopropanol, water and mixed solvents with water
Method: as §1, §2
The resulting suspensions were magnetically stirred at room temperature (1000 rpm) for 3 days, then centrifuged to collect the solids, which were subjected to XRPD testing.

[7] = Pressure (mechanical) stability, XRPD; assay type: physicochemical; conditions: 350 MPa
Method: as §1, §2
The sample in the mold was compressed under a pressure of 350 MPa. The solid was collected for XRPD characterization.

[8] = Solid stability test under high temperature, high humidity and strong light exposure; assay type: physicochemical
Method: Samples placed under high-temperature conditions were examined in an electric blast drying oven, while samples placed under high-humidity conditions were examined in a comprehensive drug stability test chamber. Sampling and testing were conducted on the 5th, 10th, and 30th days, and the test results were compared with the initial test results on day 0. Samples placed under strong light exposure conditions were left open, and sampling and testing were performed on the 5th and 10th days, with the test results compared to the initial test results on day 0.

[9] = 25° C./60% Relative Humidity, Sealed + Desiccant, 1 month
[10] = 25° C./60% Relative Humidity, Sealed + Desiccant, 2 month
[11] = 40° C./75% Relative Humidity, Sealed + Desiccant, 1 month
[12] = 40° C./75% Relative Humidity, Sealed + Desiccant, 2 month
[13] = 40° C./75% Relative Humidity, Sealed + Desiccant, 3 month
[14] = High Humidity (Room Temperature/Relative Humidity: 92.5%, Open), Day 5
[15] = High Humidity (Room Temperature/Relative Humidity: 92.5%, Open), Day 10
[16] = High Temperature (60° C., Open), Day 5
[17] = High Temperature (60° C., Open), Day 10
[18] = Strong Light Exposure (5000 ± 500 Lux, 90 μw/cm^2, Open), Day 10
[19] = Strong Light Exposure test, Day 10 (Light Exposure Control)

## O=C1CCC(c2noc3ccc4c(NC(=O)CN5CCN(C[C@H]6CC[C@H](n7cc(NC(=O)c8coc(-c9ccnc(NCC%10CC%10)c9)n8)c(C(F)F)n7)CC6)CC5)cccc4c23)C(=O)N1 (stereo partly shown)
[1]; [9]
  Content: 99.5%
  Total Impurities: 2.8%
[1]; [10]
  Content: 99.2%
  Total Impurities: 2.9%
[1]; Day 0
  Content: 100.0%
  Total Impurities: 2.4%
[1]; long-term conditions of 25° C./60% relative humidity
  stability (conclusion): good stability
[2]; solvent Dimethyl sulfoxide
  XRPD Results Anti-Solvent Addition: Amorphous
[2]; solvent N-Methylpyrrolidone
  XRPD Results Anti-Solvent Addition: Amorphous
[3]
  crystal form before and after DVS: no change in crystal form
[3]; DVS, 25° C. and 80% RH
  ΔW (hygroscopic weight gain): 3.536%
[4]; [11]
  Content: 99.3%
  Total Impurities: 2.7%
[4]; [12]
  Content: 99.5%
  Total Impurities: 2.7%
[4]; [13]
  Content: 99.1%
  Total Impurities: 2.7%
[4]; Day 0
  Content: 100.0%
  Total Impurities: 2.4%
[4]; accelerated conditions of 40° C./75% relative humidity
  stability (conclusion): good stability
[5]
  Area Under the Drug-Time Curve (0-inf): 8.18 µM·h
  Peak Concentration: 0.70 µM
  Time to Peak Concentration: 5.00 h
[6]
  stability in solvents (conclusion): good stability
[7]
  stability under compression mold pressure (conclusion): good stability
[8]; Day 0
  Content: 100.0%
  Total Impurities: 2.4%
[8]; [14]
  Content: 99.7%
  Total Impurities: 2.4%
[8]; [15]
  Content: 100.1%
  Total Impurities: 2.5%
[8]; [16]
  Content: 102.8%
  Total Impurities: 2.5%
[8]; [17]
  Content: 102.5%
  Total Impurities: 2.5%
[8]; [18]
  Content: 102.3%
  Total Impurities: 2.6%
[8]; [19]
  Content: 101.5%
  Total Impurities: 2.4%
[8]; high temperature, high humidity, and strong light exposure conditions
  stability (conclusion): good stability
